molecular target: Polymerase acidic protein (Influenza A virus (A/Puerto Rico/8/1934(H1N1)), UniProt P03433); experiment: Inhibition of cap 1 ALMV primed Influenza transcriptase

`CC(C)CC1=N/C(=C\c2ccc(F)cc2)C(=O)NC1=O` and `COCON1C(=O)C(CC(C)C)=N/C(=C\c2ccc(F)cc2)C1=O` cannot be ordered by IC50: over 200 µM for the first, over 200 µM for the second.

First: CC(C)/C=C1\N=C(CC(C)C)C(=O)N(O)C1=O
Second: COCON1C(=O)C(CC(C)C)=N/C(=C\C(C)C)C1=O
The IC50 of the first is lower: 5.1 µM for the first, over 200 µM for the second. The first is the more potent here.

`COCON1C(=O)[C@H]([C@H](O)C(C)C)N(Cc2ccccc2)[C@@H](CC(C)C)C1=O` and `COCON1C(=O)[C@H]([C@H](O)C(C)C)N(Cc2ccccc2)[C@@H](Cc2ccccc2)C1=O` cannot be ordered by IC50: over 200 µM for the first, over 200 µM for the second.

`COCON1C(=O)[C@H]([C@@H](O)C(C)C)N(Cc2ccccc2)[C@@H](Cc2ccccc2)C1=O` and `COCON1C(=O)/C(=C\C(C)C)N(Cc2ccccc2)[C@@H](Cc2ccccc2)C1=O` cannot be ordered by IC50: over 200 µM for the first, over 200 µM for the second.

`COCON1C(=O)/C(=C/c2ccccc2F)N(Cc2ccccc2)[C@@H](CC(C)C)C1=O` and `COCON1C(=O)/C(=C\C(C)C)N(Cc2ccccc2)[C@@H](CC(C)C)C1=O` cannot be ordered by IC50: over 200 µM for the first, over 200 µM for the second.

`COCON1C(=O)C(CC(C)C)=N/C(=C\c2ccccc2)C1=O` and `COCON1C(=O)C(CC(C)C)=N/C(=C\c2cccc(F)c2)C1=O` cannot be ordered by IC50: over 200 µM for the first, over 200 µM for the second.

`COCON1C(=O)C(CC(C)C)=N/C(=C\c2ccc(OC)cc2)C1=O` and `COCON1C(=O)C(Cc2ccccc2)=N/C(=C\c2ccc(OC)cc2)C1=O` cannot be ordered by IC50: over 200 µM for the first, over 200 µM for the second.

`COCON1C(=O)C(CC(C)C)=N/C(=C\c2ccccc2F)C1=O` and `COCON1C(=O)C(Cc2ccccc2)=N/C(=C\C(C)C)C1=O` cannot be ordered by IC50: over 200 µM for the first, over 200 µM for the second.

First: COCON1C(=O)C(Cc2ccccc2)=N/C(=C\c2ccc(F)cc2)C1=O
Second: O=C1C(Cc2ccccc2)NC(Cc2ccc(F)cc2)C(=O)N1O (stereo not drawn)
The IC50 of the first is higher: over 200 µM for the first, 85 µM for the second. The second is the more potent here.
